According to patent US8962808B2, “EGFR-related polypeptides and methods of use” (The Research Foundation for the State University of New York, priority 2010, dated 2015):

What was measured:
[1] = tested on: cancer cells with EGFRvIII expression; conditions: literature reports; cited from earlier work
[2] = tested on: non-small cell lung cancer; conditions: NSCLC patients with activating mutations in the EGFR tyrosine kinase domain; cited from earlier work
NIH 3T3 cells = experiment: Western blot of phosphorylation of GFP-tagged EGFRΔ[…] versus WT-EGFR in NIH 3T3 cells; assay type: cell-based; conditions: no ligand, FIG. 7A
Text: Dafna Bar-Sagi). Then, we subcloned the novel extracellular deletion mutant Δ[…] into this vector. […]

SY5Y = experiment: IP-western of phosphorylation status of GFP-tagged EGFR mutants in SY5Y cells; assay type: cell-based, human; conditions: anti-GFP IP, higher than EGFRvIII, FIG. 7D
Text: Then, we prepared RNA and protein lysates from the transfected cells. We confirmed the identity of the lysates by RT-PCR (FIG. 7C). Next, we evaluated the phosphorylation status of both mutants. Because SY5Y cells expressed endogenous WT-EGFR (21, 22), we used anti-GFP antibody to immunoprecipitate the mutant EGFR polypeptides.

Compound: C#Cc1cccc(Nc2ncnc3cc(OCCOC)c(OCCOC)cc23)c1 [erlotinib]
- sensitivity of cancer cells with EGFRvIII expression [1]: not as sensitive

Compound: COc1cc2ncnc(Nc3ccc(F)c(Cl)c3)c2cc1OCCCN1CCOCC1 [gefitinib]
- patient response [2]: dramatic response

Compound: EGFRΔ[…]: truncated EGFR, in-frame deletion from nucleotide 102 of exon 2 to nucleotide 869 of exon 7
- phosphorylation in the absence of ligand (versus WT-EGFR) (NIH 3T3 cells): constitutively active
- autophosphorylation level, difference versus EGFRvIII (SY5Y): ~40%
